Experiment [1] relates to phenylephrine contracted canine carotid artery ring preparation. Kind of experiment: Contraction force and vasorelaxation in phenylephrine contracted canine carotid artery ring preparation. Particulars: for force after HEPES buffer was added: ethanol 2×10^−7 mol/L control group, HEPES buffer instead of Lzm-S.
In experiment [2] the test system is Lzm-S-induced carotid artery vasodilation. Kind of experiment: Prevention of Lzm-S-induced vasodilation by pretreatment agents in the carotid artery ring preparation. Conditions: for contraction after Lzm-S, % of the butanol-plateau: n-butanol pretreated; for inhibition of Lzm-S-induced vasodilation (words): pretreatment with the agent, phenylephrine contracted ring; for inhibition of Lzm-S-induced vasodilation (words) / contraction after Lzm-S relative to the value post-L-NMMA treatment: human Lzm-S 6.7×10^−7 mol/L; for contraction after Lzm-S relative to the value post-L-NMMA treatment: L-NMMA 10^−3 mol/L treated group (n=8). Details: species or system canine.

“Also recorded” adds a separate entry of the source.

For the compound `CCCCO` [n-butanol], the “force after the alcohol was added, % of the phenylephrine-plateau response” value in experiment [1] (n-butanol (10^−7 mol/L), before Lzm-S) is recorded as 61±17%. The “contraction after Lzm-S, % of the butanol-plateau” value in experiment [2] (5 minutes) is 84±9%; in experiment [2] (15 minutes), 62±21%; in experiment [2] (30 minutes), 23±27%. For the same compound, the “inhibition of Lzm-S-induced vasodilation (words)” value (“inhibition” below) in experiment [2] is on record as “no inhibitory effect”.
With `CCO` [ethanol], the “force after HEPES buffer was added” value stood at 10.7±2.8 grams in experiment [1] (5 minutes), 11±2.8 grams in experiment [1] (15 minutes) and 11±2.6 grams in experiment [1] (30 minutes). For the same compound, the “contraction with ethanol as compared with the phenylephrine contraction alone” value in experiment [1] (ethanol treated control group, ethanol highest concentration 2×10^−7 mol/L, before HEPES buffer) was found to be 10±2.6 grams. In addition, the “initial effect of ethanol on force” value in experiment [1] (higher concentrations of ethanol, before Lzm-S) was “initial vasoconstriction”. The results for the “inhibition” value in experiment [2] and in experiment [2] (listed as Ethanol) were “inhibited the effect of lysozyme” and “markedly effective”, respectively.
As for `CNC(=N)NCCC[C@H](N)C(=O)O` [L-NMMA, N^G-monomethyl-L-arginine], the “contraction with L-NMMA treatment” value in experiment [1] (L-NMMA 10^−3 mol/L added after phenylephrine plateau, before Lzm-S) turned out to be 8.1±3.5 grams. Further, the “contraction after Lzm-S relative to the value post-L-NMMA treatment” value is 37±22% in experiment [2] (5 minutes); 13±16% in experiment [2] (15 minutes); −0.3±1% in experiment [2] (30 minutes, minus = below resting force). Besides, the “inhibition” value in experiment [2] is given as “did not inhibit lysozyme induced vasodilation; also recorded: did not Prevent Vasodilation”.
